From US9526737B2, “Oxysterols for activation of hedgehog signaling, osteoinduction, antiadipogenesis, and Wnt signaling” (THE REGENTS OF THE UNIVERSITY OF CALIFORNIA, priority 2007, dated 2016)
Like-named read-outs stand apart in the source and are kept apart here.

How the values were obtained:
[1] = test system: marrow stromal cells; assay: Osteoinductive properties (osteoblast differentiation markers: ALP activity, osteocalcin mRNA, mineralization); assay type: cell-based; conditions: induction of osteoblast differentiation markers
Source text: Oxysterols discussed in this application include those designated as Oxy22, Oxy26, Oxy27, Oxy28, Oxy39, Oxy40, Oxy41, Oxy42, Oxy48, Oxy49, Oxy20, Oxy34, Oxy36, Oxy38, Oxy50, Oxy51, Oxy52, and Oxy53. At least the following oxysterols have been identified as osteoinductive: Oxy22, Oxy26, Oxy27, Oxy28, Oxy39, Oxy40, Oxy41, Oxy42, Oxy48, Oxy49, Oxy50, Oxy51, Oxy52, and Oxy53. The osteoinductive properties of these oxysterols is shown by their ability to induce the expression of various osteoblast differentiation markers, including alkaline phosphatase activity, osteocalcin mRNA expression, and mineralization. These oxysterols are activators of the hedgehog signaling pathway.

[2] = test system: M2-10B4 marrow stromal cells; assay: 45Ca incorporation assay (matrix mineralization); assay type: cell-based
Procedure: ^45Ca incorporation assay as a measure of matrix mineralization in cell monolayers was performed as previously described (45).
^45Ca incorporation assay (see Example above) was used to measure mineralization in M2 cells pre-treated with 1 μg/ml Dkk-1 or vehicle for 2 h, and then treated with control vehicle or 2.5 μM SS 12 days (See FIG. 2D).
^45Ca incorporation assay was used to measure mineralization in M2 cells pre-treated with various doses of LY, 1 μM Wm, or vehicle for 2 h, and then treated with 5 μM SS or control vehicle for 14 days (See FIG. 7C).
M2-10B4 cells were treated for 14 days with control vehicle (C) or various concentrations (μM) of oxysterols as indicated. SS refers to 20S-hydroxycholesterol+22S-hydroxycholesterol in combination. After 12 days with refeeding every 5th day, ^45Ca was added and on day 14, ^45Ca incorporation was measured (See FIG. 18).

[3] = test system: bone sialoprotein (BSP) mRNA expression; assay: Q-RT-PCR for bone sialoprotein (BSP) mRNA expression; assay type: cell-based; conditions: M2-10B4 cells
Procedure: (§1) Total RNA was extracted with the RNA isolation kit from Stratagene (La Jolla, Calif.) according to the manufacturer's instructions. RNA was DNase-treated using the DNA-free kit from Ambion, Inc. (Austin, Tex.). 3 μg of RNA was reverse-transcribed using reverse transcriptase from Stratagene (La Jolla, Calif.) to make single stranded cDNA. The cDNAs were mixed with Qi SYBR Green Supermix from Bio-Rad Laboratories (Hercules, Calif.) for quantitative RT-PCR using a Bio-Rad I-cycler IQ quantitative thermocycler. All PCR samples were prepared in triplicate or quadruplicate. Each sample was added to duplicate wells of a 96-well plate. After 40 cycles of PCR, melt curves were analyzed in order to ensure primer specificity, and the identity of all PCR products were verified by sequencing and comparing with the complete mRNA sequence obtained from PubMed's GenBank. Fold changes in gene expression were calculated using the ΔΔCt method (14). […]
M2-10B4 cells were treated with control vehicle (C) or various doses (μM) of oxysterols (Oxy34 or Oxy49) as indicated. […] After 6 days of treatments, mRNA was extracted from cells and analyzed by Q-RT-PCR for BSP and GAPDH expression (See FIG. 17).
After 48 hours of treatment, RNA was isolated and analyzed for BSP expression by Q-RT-PCR as a measure of osteogenic differentiation (See FIG. 10). […]

[4] = test system: M2-10B4 marrow stromal cells; assay: Alkaline phosphatase (ALP) activity assay
Procedure: The protocol is a modification of alkaline phosphatase assay kit from Sigma. Cells are cultured in 24-well tissue culture plates. After treatments with test agents, cells are rinsed twice with PBS and scraped into 200 ml of lysis buffer (0.2% NP-40 in 1 mM MgCl2) and sonicated for 10 seconds. Next, 1 ml of reaction mixture is added to each well. Reaction mixture is 221 alkaline buffer (Sigma): stock substrate solution (1:1). Stock substrate solution is prepared by dissolving 40 mg of Sigma 104 phosphatase substrate in 10 ml of ddH2O. After addition of reaction mixture to lysed cells, incubation is performed for 30 minutes at 37 C. […] The reaction is stopped by the addition of 12 ml of 1N NaOH to each well, and absorbance is determined at 405 nm. Alkaline phosphatase activity is calculated using p-nitrophenol as a standard, according to Sigma kit's instructions. Results are normalized to total protein in each well determined using the Bio-Rad protein assay solution (Bio-Rad Laboratories).
M2-10B4 marrow stromal cells were treated with oxysterols at various doses for 3 days after which they were collected and analyzed by calorimetric assay for alkaline phosphatase activity (a marker of osteoblastic differentiation) (Table 1); the alkaline phosphatase assay described above was used.
M2-10B4 marrow stromal cells were treated with oxysterols at various doses for 3 days after which they were collected and analyzed by colorimetric assay for alkaline phosphatase activity (a marker of osteoblastic differentiation) (Table 2); the alkaline phosphatase assay described above was used.
M2-10B4 bone marrow stromal cells were treated in culture with control vehicle (C) or various oxysterol (Oxy) molecules as indicated at either 1.25 (1) or 2.5 (2) μM concentrations. After 3 days of treatment, alkaline phosphatase activity as a measure of early osteogenic differentiation of cells was measured in whole cell lysates (See FIG. 9 and Table 3); the alkaline phosphatase assay described above was used.

[5] = test system: Patched (Ptch) mRNA expression; assay: Q-RT-PCR for Patched (Ptch) mRNA expression; assay type: cell-based; conditions: M2 cells pre-treated 2 h with inhibitor, then 5 μM SS for 48 h
Procedure: as §1, with “(14). All primers were designed using the Beacon Designer software from Bio-Rad Laboratories (Hercules, Calif.).” for “(14).”
M2 cells were pre-treated for 2 h with Dkk-1 or vehicle. […] RNA was isolated and analyzed for Nkd2 (C), Wif-1 (D), and Ptch (E) expression (See FIGS. 5C-5E).

[6] = test system: Wnt Inhibitory factor-1 (Wif-1) mRNA expression; assay type: cell-based; conditions: M2 cells pre-treated 2 h with inhibitor, then 5 μM SS for 48 h
Procedure: (§2) Total RNA was extracted with the RNA isolation kit from Stratagene (La Jolla, Calif.) according to the manufacturer's instructions. RNA was DNase-treated using the DNA-free kit from Ambion, Inc. (Austin, Tex.). 3 μg of RNA was reverse-transcribed using reverse transcriptase from Stratagene (La Jolla, Calif.) to make single stranded cDNA. The cDNAs were mixed with Qi SYBR Green Supermix from Bio-Rad Laboratories (Hercules, Calif.) for quantitative RT-PCR using a Bio-Rad I-cycler IQ quantitative thermocycler. All PCR samples were prepared in triplicate or quadruplicate. Each sample was added to duplicate wells of a 96-well plate. After 40 cycles of PCR, melt curves were analyzed in order to ensure primer specificity, and the identity of all PCR products were verified by sequencing and comparing with the complete mRNA sequence obtained from PubMed's GenBank. Fold changes in gene expression were calculated using the ΔΔCt method (14). All primers were designed using the Beacon Designer software from Bio-Rad Laboratories (Hercules, Calif.). Primers used are as follows: OCN (5′-[…]-3′ (SEQ ID NO: 1) and 5′-[…]-3′ (SEQ ID NO: 2)), Axin2(5′[…]-3′ (SEQ ID NO: 3) and 5′-[…]-3′ (SEQ ID NO: 4)), Cyclin D1(5′-[…]-3′ (SEQ ID NO: 5) and 5′-[…]-3′ (SEQ ID NO: 6)), NKD2 (5′-[…]-3′ (SEQ ID NO: 7) and 5′[…]-3′ (SEQ ID NO: 8)), WIF-1 (5′-[…]-3′ (SEQ ID NO: 9) and 5′-[…]-3′ (SEQ ID NO: 10)), and GAPDH (5′-[…]-3′ (SEQ ID NO: 11) and 5′-[…]-3′ (SEQ ID NO: 12)).
(§3) M2 cells were treated with 5 μM SS, 200 ng/ml Shh, or control vehicle for 48 h. RNA was isolated and analyzed by Q-RT-PCR for Nkd2 (E) and WIF-1 (F) expression (See FIGS. 4E and 4F).
(§4) M2 cells were pre-treated for 2 h with vehicle or cyclopamine (Cyc) at the concentrations indicated. Next, cells were treated with 5 μM SS or control vehicle for 48 h. RNA was isolated and analyzed for Nkd2 (A) and WIF-1 (B) expression by Q-RT-PCR (See FIGS. 5A and 5B).
(§5) M2 cells were pre-treated for 2 h with Dkk-1 or vehicle. Next, cells were treated with 5 μM SS or control vehicle for 48 h. RNA was isolated and analyzed for Nkd2 (C), Wif-1 (D), and Ptch (E) expression (See FIGS. 5C-5E).
(§6) M2 cells were pre-treated for 2 h with 5 μM LY, 2.5 μM Wm, or vehicle followed by treatment with 5 μM SS or control vehicle for 48 h. RNA was isolated and analyzed for Nkd2 (FIG. 7E) and Wif-1 (FIG. 7F) expression.

[7] = test system: Naked Cuticle 2 (Nkd2) mRNA expression; assay type: cell-based; conditions: M2 cells pre-treated 2 h with inhibitor, then 5 μM SS for 48 h
Procedure: as §2, §3, §4, §5, §6

[8] = test system: hedgehog signaling pathway; assay: Hedgehog signaling pathway activation (8X-Gli reporter, Gli 1 and Patched Q-RT-PCR, cyclopamine inhibition); assay type: cell-based; conditions: M2 cells
Procedure: M2-10B4 bone marrow stromal cells were transfected with an 8XGli luciferase reporter or the empty vector (pGL3b). Cells were subsequently treated with control vehicle, 5 μM Oxy49, or 400 ng/ml recombinant human sonic hedgehog (Shh) as positive control. After 48 hours of treatments, reporter luciferase activity was measured and normalized to Renilla luciferase activity (See FIG. 14). […] M2-10B4 bone marrow stromal cells were transfected with an 8XGli luciferase reporter or the empty vector (pGL3b). Cells were subsequently treated with control vehicle, 5 μM Oxy34, or 400 ng/ml recombinant human sonic hedgehog (Shh) as positive control. After 48 hours of treatments, reporter luciferase activity was measured and normalized to Renilla luciferase activity (See FIG. 15). […] After 48 hours of treatments, mRNA was extracted from cells and analyzed by Q-RT-PCR for expression of hedgehog target genes Gli 1 and Patched (See FIGS. 16A and 16B). […] Luciferase reporter activity using a reporter construct with 8X-Gli binding sites • 2. Q-RT-PCR analysis of the induction of hedgehog pathway target gene expression Gli 1 and Patched • 3.

[9] = test system: osteocalcin (OCN) mRNA expression; assay: Q-RT-PCR for osteocalcin (OCN) mRNA expression; assay type: cell-based; conditions: M2 cells pre-treated 2 h with inhibitor, then SS
Procedure: as §1, with “(14). All primers were designed using the Beacon Designer software from Bio-Rad Laboratories (Hercules, Calif.).” for “(14).”
M2 cells were pre-treated with vehicle or 1 μg/ml Dkk-1 for 2 h followed by treatment with control vehicle or 5 μM SS for 6 days. RNA was isolated and analyzed by Q-RT-PCR for OCN expression (See FIG. 2E).
RNA was analyzed for OCN expression by Q-RT-PCR and normalized to GAPDH (p<0.01 for Control versus SS and for SS versus SS+LY and SS+Wm) (See FIG. 7B).

[10] = test system: Runx2 DNA binding activity; assay: Runx2 DNA binding activity by EMSA analysis; assay type: cell-based; conditions: M2 cells
[11] = M210B4, 72 h, read-out: Fold Induction in alkaline phosphatase activity compared to control untreated cells
[12] = M210B4, 72 h, read-out: Fold Induction in alkaline phosphatase activity over control untreated cells

C=C(C)CCC[C@](C)(O)[C@H]1CC[C@H]2[C@@H]3C[C@H](O)[C@H]4C[C@@H](O)CC[C@]4(C)[C@H]3CC[C@@]21C [Oxy49, (3S,5S,6S,8R,9S,10R,13S,14S,17S)-17-((S)-2-Hydroxy-6-methylhept-6-en-2-yl)-10,13-dimethylhexadecahydro-1H-cyclopenta[a]phenanthrene-3,6-diol]
Osteoinductive property [1]: osteoinductive
Mineralization (45Ca incorporation) ([2]; M2-10B4 cells treated for 14 days): increased mineralization
BSP expression [3]: induce BSP expression
fold induction at 2.5 µM [4, 11]: 170
fold induction at 5 µM [4, 11]: 204
fold induction at 1.25 µM [4, 12]: 46
fold induction at 2.5 µM [4, 12]: 68

CC1=C2C[C@H]3[C@@H](CC=C4C[C@@H](O)CC[C@@]43C)[C@@H]2CC[C@]12O[C@@H]1C[C@H](C)CN[C@H]1[C@H]2C [cyclopamine, reference compound]
Inhibition of oxysterol-induced Patched (Ptch) mRNA expression [5]: completely abolished
Inhibition of oxysterol-induced Wif-1 expression [6]: completely blocked
Inhibition of oxysterol-induced Nkd2 expression [7]: did not inhibit

O=c1cc(N2CCOCC2)oc2c(-c3ccccc3)cccc12 [LY, LY 294002]
Inhibition of oxysterol-induced hedgehog pathway activation [8]: did not inhibit

COC[C@H]1OC(=O)c2coc3c2[C@@]1(C)C1=C(C3=O)[C@@H]2CCC(=O)[C@@]2(C)C[C@H]1OC(C)=O [Wm, wortmannin]
Inhibition of oxysterol-induced hedgehog pathway activation [8]: did not inhibit

B1: Dkk-1: recombinant mouse Dickkopf related protein 1; LRP5/6 inhibitor, Wnt signaling inhibitor (protein, UniProt O54908 32-272, looked up)
Dickkopf-related protein 1: TLNSVLINSNAIKNLPPPLGGAGGQPGSAVSVAPGVLYEGGNKYQTLDNYQPYPCAEDEECGSDEYCSSPSRGAAGVGGVQICLACRKRRKRCMRHAMCCPGNYCKNGICMPSDHSHFPRGEIEESIIENLGNDHNAAAGDGYPRRTTLTSKIYHTKGQEGSVCLRSSDCAAGLCCARHFWSKICKPVLKEGQVCTKHKRKGSHGLEIFQRCYCGEGLACRIQKDHHQASNSSRLHTCQRH
Inhibition of oxysterol-induced Patched (Ptch) mRNA expression [5]: did not inhibit
Inhibition of oxysterol-induced mineralization (45Ca incorporation) ([2]; M2 cells pre-treated 2 h with inhibitor, then SS for 12-14 days): Complete and below baseline level inhibition
Inhibition of oxysterol-induced Wif-1 expression [6]: only minimally inhibited
Inhibition of oxysterol-induced Nkd2 expression [7]: almost completely inhibited
Inhibition of oxysterol (SS)-induced OCN mRNA expression [9]: did not inhibit
Inhibition of oxysterol-induced Runx2 DNA binding activity [10]: did not inhibit
Inhibition of BMP-2-induced ALP activity ([4]; M2 cells pre-treated 2 h with 1 or 2 μg/ml Dkk-1, then 50 ng/ml BMP-2 for 3 days): only significantly inhibited by using the higher concentration
Inhibition of Shh-induced ALP activity ([4]; M2 cells pre-treated 2 h with inhibitor, then 200 ng/ml Shh for 3 days): partially inhibited
Inhibition of oxysterol-induced ALP activity ([4]; M2 cells pre-treated 2 h with inhibitor, then 2.5 μM SS for 3 days): partial but significant inhibition
ALP activity, agent alone ([4]; M2 cells, Dkk-1 1 or 2 μg/ml without oxysterol): no observed effect
